Assay results published in the SangsterLogP compilation.

Assays:
[1] = method code SF-GLC, from DOI: 10.1016/s0045-6535(02)00841-x, PMID: 12615110
[2] = not given; remark: listed apart in the source
[3] = not given; remark: listed apart in the source
[4] = not given; remark: listed apart in the source
[5] = method code SF-GLC, from DOI: 10.1016/0166-445x(88)90052-5
[6] = method code SF-AS, from DOI: 10.1246/bcsj.63.3542
[7] = method code SF, from DOI: 10.1039/p29920000723
[8] = method code SF, from Kruglik, P.; Leschev, M.; Rakhman'ko, M.; Bubel, N.; Asratyan, V. (1991). Extraction of 1,2,4-triazole and its derivatives by organic solvents. 64(8)1721-1724.
[9] = method code SF, from DOI: 10.1080/09553008714551831, PMID: 3497891; settings: pH 7.4
[10] = method code SF, from DOI: 10.1002/jps.2600830714, PMID: 7965679
[11] = not given; remark: listed apart in the source
[12] = not given; remark: listed apart in the source
[13] = not given; remark: listed apart in the source
[14] = method code SF, from DOI: 10.1016/0360-3016(89)90912-7, PMID: 2703384; settings: pH 7.4
[15] = method code SF-AS, from DOI: 10.1248/cpb.40.925
[16] = method code SF-HPLC, from DOI: 10.1002/jlac.1995199512305
[17] = not given; remark: listed apart in the source
[18] = not given; remark: listed apart in the source
[19] = not given; remark: listed apart in the source
[20] = method code SF-AS, from DOI: 10.1021/jm00197a006, PMID: 533877
[21] = not given; remark: listed apart in the source
[22] = not given; remark: listed apart in the source
[23] = not given; remark: listed apart in the source
[24] = method code SF, from DOI: 10.1016/0360-3016(92)90876-j, PMID: 1735696; settings: pH 7.4
[25] = method code SF-RC, from DOI: 10.1021/es60170a013
[26] = method code SF-AS, from DOI: 10.1016/0378-5173(82)90004-7; settings: pH 3.0
[27] = method code SF-AS, from DOI: 10.1211/0022357001777513, PMID: 11186244; settings: pH 7.3

Brc1ccc(Oc2c(Br)cc(Br)cc2Br)c(Br)c1
logP [1]: 7.24

Cc1ccc(Cl)cc1Cl
logP: 4.09

CC(C)(C)O
logP [2]: 0.34

ClCCCl
logP [3]: 1.55

CCCC(C)=O
logP [4]: 0.95

BrCC1CO1 (stereo unspecified)
logP [5]: 0.85

CNc1cnccn1
logP [6]: 0.56

CCS(=O)(=O)NC(=O)CCc1ccccc1
logP [7]: 1.67

Cn1cnc([N+](=O)[O-])n1
logP [8]: -0.45

COCC(O)Cn1cnc([N+](=O)[O-])n1 (stereo unspecified)
logD [9]: -0.47

Brc1ccc(Oc2ccc(Br)cc2Br)c(Br)c1
logP [1]: 6.81

O=NN(CCCl)C(=O)NCC(=O)O
logP [10]: -1.25

Nc1c(F)cc(F)cc1F
logP [11]: 1.81

Cc1cc(=O)n(-c2ccc(Cl)cc2)cc1C(=O)O
logP [12]: 4.1

Oc1ccc(Cl)cc1Cl
logP [13]: 3.12

COCC(F)Cn1cnc([N+](=O)[O-])c1 (stereo unspecified)
logD [14]: -0.04

COC(=O)c1ccc(Br)o1
logP [15]: 1.84

Cc1cn(C2CC(N=[N+]=[N-])C(COP(=O)(OCC3OC(n4cc(C)c(=O)[nH]c4=O)CC3N=[N+]=[N-])C(O)c3ccc([N+](=O)[O-])cc3[N+](=O)[O-])O2)c(=O)[nH]c1=O (stereo unspecified)
logP [16]: 0.94

O=C(O)c1cc(C(F)(F)F)nc2ccccc12
logP [12]: 3.14

CNC(=S)NCC(F)(F)C(F)(F)C(F)(F)F
logP [7]: 2.39

Oc1cc(Cl)c(Cl)c(Cl)c1O
logP: 3.56

NC(=O)c1ccccc1Cl
logP [17]: 0.94

O=C(O)CCCC[C@@H]1SC[C@@H]2NC(=O)N[C@@H]21
logP [18]: 0.39

COC(=O)c1c[nH]c2ccccc12
logP [15]: 2.57

CCCCC1C(=O)N(c2ccccc2)N(c2ccc(O)cc2)C1=O (stereo unspecified)
logP [19]: 3.04

Cc1nsc(C=NO)n1
logP [20]: 1.29

Brc1ccsc1Br
logP [21]: 3.53

COc1cc2c(c(OC)c1OC)-c1ccc(O)c(=O)cc1[C@@H](NC(C)=O)CC2
logP [22]: 1.03

CCCn1ccc(=O)c(O)c1
logP [23]: -0.17

CC(=O)OCC(=O)[C@H]1CC[C@H]2[C@@H]3CCC4=CC(=O)CC[C@]4(C)[C@H]3CC[C@]12C
logP [22]: 3.08

OC1CCCCC1
logP [4]: 1.36

O=C(CCCn1ccnc1[N+](=O)[O-])NO
logD [24]: -1.11

CCCn1cnc([N+](=O)[O-])n1
logP [8]: 0.22

CN(C)C(=O)c1ccccn1
logP [6]: -0.45

Oc1ccccc1O
logP [13]: 1.1

CSc1ccc(C=C2C(C)=C(CC(=O)O)c3cc(F)ccc32)cc1
logP [19]: 4.76

CN(O)C(=O)Cn1ccnc1[N+](=O)[O-]
logD [24]: -0.74

Nc1ncc([N+](=O)[O-])s1
logD [9]: 0.89

On1nc2ccccc2n1
logP [22]: 0.69

Oc1ccc(Cl)c(O)c1
logP [25]: 1.8

ClC(Cl)Cl
logP [25]: 1.9

CN(C)C(=O)c1cnccn1
logP [6]: -0.8

CC1(C)C(=O)NC(=O)NC1=O
logD [26]: -0.44

CC(C)=CCC1(C(C)C)C(=O)NC(=O)NC1=O
logD [26]: 2.23

O/N=C/c1cnns1
logP [20]: 0.86

OCC(O)COc1cccc(-c2c3nc(c(-c4cccc(OCC(O)CO)c4F)c4ccc([nH]4)c(-c4cccc(OCC(O)CO)c4F)c4nc(c(-c5cccc(OCC(O)CO)c5F)c5ccc2[nH]5)C=C4)C=C3)c1F (stereo unspecified)
logD [27]: 2.65
